Consider two compounds from patent US6448422B1, “Chromogenic compound” (Eli Lilly and Company, priority 2000, dated 2002).

This test concerns the target T1, Hepatic Lipase (Homo sapiens, UniProt P11150).
T1 sequence (P11150 23-499): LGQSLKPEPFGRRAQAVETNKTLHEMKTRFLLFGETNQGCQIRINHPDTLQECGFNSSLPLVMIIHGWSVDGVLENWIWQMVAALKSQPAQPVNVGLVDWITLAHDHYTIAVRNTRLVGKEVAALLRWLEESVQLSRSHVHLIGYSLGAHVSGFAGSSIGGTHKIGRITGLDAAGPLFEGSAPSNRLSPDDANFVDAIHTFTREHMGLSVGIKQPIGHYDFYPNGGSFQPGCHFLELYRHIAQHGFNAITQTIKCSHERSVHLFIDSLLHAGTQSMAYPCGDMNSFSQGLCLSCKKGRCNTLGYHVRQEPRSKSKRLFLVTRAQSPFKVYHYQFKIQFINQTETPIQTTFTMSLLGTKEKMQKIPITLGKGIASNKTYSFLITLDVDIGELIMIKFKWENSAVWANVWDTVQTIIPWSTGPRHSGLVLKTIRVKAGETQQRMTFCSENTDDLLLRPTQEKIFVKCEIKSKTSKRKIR
Description: Hydrolysis of thioPEG and thioPC substrates by Hepatic Lipase (papain thiol detection system, FIG. 1). Type of test: biochemical. The following applies: 0.5 mM thioPEG (enzyme diluted 100-5000 fold), 1.0 mM thioPC (enzyme diluted 1-64 fold). Here is the method: Hepatic Lipase enzyme was diluted 1, 32 or 64 fold for thioPC and 100, 500, 1000 or 5000 fold for thioPEG. Hydrolysis was measured by the papain thiol detection system (discussed below). […] Data curve I represents 0.5 mM thioPEG and Data Curve II represents 1.0 mM thioPC.
The invention also has the additional advantage of requiring fewer incubation periods in order to obtain detectable color. For example as shown in Scheme D below, thioPC substrate requires a reaction coupled with an enzymatic detection process for the liberated thiol-lysophospholipid which has two additional incubation periods in the papain system. L-BAPNA is an abbreviation for N-benzoyl-L-arginine, p-nitroanilide, hydrochloride.
In Scheme E, below, thioPC is combined with hepatic lipase and incubated for about 30 minutes yielding a free-thiol lysophospholipid. […] Activated papain-SH enzyme is combined with a coloring agent, L-BAPNA, and incubated for 60 minutes yielding a colored product, p-nitro aniline. ThioPEG substrate is an improvement since it requires only a single incubation period to yield detectable color. [drawing 12]

For the compound `CCCCCCCCCC(=O)O[C@@H](COP(=O)(O)OCCO)CSC(=O)CCCCCCCCC` [thioPEG, (1-Decanoylthio-1-deoxy-2-decanoyl-sn-glycero-3-phosphoryl) ethylene glycol], the “hydrolysis of substrate by Hepatic Lipase (Optical Density at 410 nM vs Relative Enzyme Concentration)” value is reported as “hydrolyzed much faster than thioPC”.

Take “didecanoyl-thio-phosphatidylcholine [thioPC]”: the “hydrolysis of substrate by Hepatic Lipase (Optical Density at 410 nM vs Relative Enzyme Concentration)” value is given as “much more slowly”.
